Assays:
[1] = P450 metabolism analysis using human microsomes; format: in vitro ADME; conditions: human
Description: PK studies were performed in the IU Simon Cancer Center Clinical Pharmacology Analytical Core (CPAC), as previously described for E3330 (Fishel et al., 2011) and standards for the compounds used. P450 metabolism studies using human microsomes were also performed in CPAC directed by Dr. David Jones.

DRG = experiment: Cisplatin ± APX3330 in neuroblastoma tumor-bearing mice; format: in vivo
Excerpt: Neuroblastoma cells were implanted subcutaneously into the right flanks of 6-wk old male NSG mice and allowed to proliferate until tumor volumes ≥150 mm^3. Mice were then randomized for treatment with cisplatin±APX3330 treatment.

Ref-1/APE1 [2] = target: T1, Ref-1/APE1 (Rattus norvegicus, UniProt P43138); experiment: Ref-1/APE1 endonuclease activity in isolated sensory neurons; format: cell-based
T1 construct: When isolated sensory neurons were exposed to APX3330; endogenous in cells; host or cells: isolated sensory neurons
T1 sequence (P43138 whole entry): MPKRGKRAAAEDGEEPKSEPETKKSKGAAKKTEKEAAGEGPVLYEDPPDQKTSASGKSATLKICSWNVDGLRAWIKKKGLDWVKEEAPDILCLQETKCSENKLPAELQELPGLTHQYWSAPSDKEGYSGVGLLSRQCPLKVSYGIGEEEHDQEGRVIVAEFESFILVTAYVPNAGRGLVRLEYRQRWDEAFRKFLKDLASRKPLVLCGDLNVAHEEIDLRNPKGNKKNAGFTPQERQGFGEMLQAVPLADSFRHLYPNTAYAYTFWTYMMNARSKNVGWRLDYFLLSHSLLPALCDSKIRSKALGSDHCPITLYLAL

Ref-1/APE1 [3] = target: T2, Ref-1/APE1 (Homo sapiens, UniProt P27695); experiment: Ref-1/APE1 endonuclease activity in tumor cells; format: cell-based
T2 construct: endogenous in cells
T2 sequence (P27695 whole entry): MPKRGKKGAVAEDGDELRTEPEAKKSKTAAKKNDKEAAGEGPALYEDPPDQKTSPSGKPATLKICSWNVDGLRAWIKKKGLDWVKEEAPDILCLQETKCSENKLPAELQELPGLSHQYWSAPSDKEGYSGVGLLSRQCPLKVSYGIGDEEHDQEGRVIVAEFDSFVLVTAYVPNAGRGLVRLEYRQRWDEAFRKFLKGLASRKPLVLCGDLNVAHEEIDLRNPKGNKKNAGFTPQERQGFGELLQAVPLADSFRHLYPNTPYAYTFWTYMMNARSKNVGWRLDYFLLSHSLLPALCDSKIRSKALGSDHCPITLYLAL

NFκB = experiment: NF-κB luciferase reporter transactivation assay; format: cell-based; conditions: read-out: inhibition of NFκB binding to the reporter construct, IC50
Description: Reporter assays were performed as previously described (Georgiadis et al., 2008; Kelley et al., 2011; Cardoso et al., 2012b; Luo et al., 2012). Cells were transfected with NF-κB-Luciferase construct containing an NF-κB-response promoter and driving the expression of a luciferase gene and a Renilla luciferase control reporter vector pRL-CMV. After a 24-hour transfection period, cells were lysed, and Firefly and Renilla luciferase activities were assayed using Renilla luciferase activity for normalization. All of the transfection experiments were performed in triplicate and repeated at least three times in independent experiments. Data are expressed as mean±standard error from a representative experiment, and Student's t tests were performed.

[4] = system: neuronal cultures derived from DRG; experiment: pH2A.X immunoblotting in DRG neuronal cultures (Example 1); format: cell-based, rat
Description: Dorsal root ganglia (DRG) were dissected from all spinal levels of adult male (150-175 g) Sprague-Dawley rats (Envigo, Indianapolis, Ind.) and the cells were dissociated as previously described (Kelley et al., 2014). Briefly, the rats were euthanized by CO2 asphyxiation. DRGs were transferred into collagenase solution (1 mg/ml) and incubated for 1 hour at 37° C. The digested DRGs were then rinsed with growth medium, centrifuged and dissociated by mechanical agitation. Approximately 30,000 cells were plated into each well of 12-well culture plates. All culture dishes were precoated with poly-D-lysine and laminin. Cells were maintained in F-12 media supplemented with 10% horse serum, 2 mM glutamine, 100 μg/ml Normocin, 50 μg/ml penicillin, 50 μg/ml streptomycin, 50 μM 5-fluoro-2′-deoxyuridine, 150 μM uridine, and 30 ng/ml of NGF in 3% CO2 at 37° C. Growth medium was changed every other day.
Small interfering RNAs to APE1 (APE1siRNA) and scrambled siRNA (SCsiRNA) controls were used to decrease APE1 protein expression in sensory neuronal cell cultures and as controls, respectively, as described previously (Vasko et al., 2005, Jiang et al., 2008a). On day 3 in culture, the growth media was replaced with 0.5 ml of Opti-MEM 1 media containing 100 nM of APE1siRNA (5′-[…]-3′ (SEQ ID NO:1)) or SCsiRNA (5′-[…]-3′(SEQ ID NO:2)); (Vasko et al., 2005)) and 10 μl of the transfecting reagent, Neuroporter. On the next day, 0.5 ml of the growth media without antibiotics was added to each well, and after an additional 24 hours the media containing siRNA was replaced with normal growth media.
Lentiviral constructs containing (1) the CMV promoter, HA-tagged APE1, IRES, and enhanced green fluorescent protein (EGFP); or (2) CMV, IRES, and EGFP were developed. DNA sequencing confirmed the constructs in the pLenti6-R4R2-V5 plasmid containing WT-, C65-, or 226+177-APE1-IRES-EGFP. For lentiviral infections, DRG cells were cultured 5 days before 150 pfu/cell of the lentivirus was added to the media. Two days later, the virus was removed and the cells grown an additional 5 days in regular media.
Tissues or cells were harvested, lysed in RIPA buffer (Santa Cruz Biotechnology; Santa Cruz, Calif., USA), sonicated, and cleared of cellular debris by centrifuging at 4000 RPM for 2 minutes. Protein was quantified using Lowry assay, and electrophoresed in a 12% SDS-polyacrylamide gel. After electrophoresis, proteins were transferred to a PVDF membrane, and blocked with Tris-buffered saline containing 0.1% Tween-20 (TBST) and 5% nonfat dry milk for 1 hour at room temperature while gently agitating. Mouse monoclonal antihuman Ape1 antibodies (1:1000), mouse monoclonal anti-phospho H2AX antibodies (1:1000), mouse monoclonal anti-vinculin antibody (1:1000), and anti-Hemagglutinin (HA) antibody were added to the blocking solution and incubated for 2 hours at room temperature while gently agitating. Antibody binding was detected following appropriate secondary antibody methods using chemiluminescence. The density of the bands was measured using Quantity One software from Bio-Rad (Hercules, Calif.) and data expressed as density normalized to vinculin.

Compound: CCCCCCCCC/C(=C\C1=C(C)C(=O)C(OC)=C(OC)C1=O)C(=O)O [APX3330]
- half-life [1]: 20 min
- cisplatin or oxaliplatin's tumor-killing efficacy (DRG; in vivo (data not shown)): did not affect cisplatin or oxaliplatin's tumor-killing efficacy in vivo
- oxidative DNA damage in DRG neurons (DRG; in vivo (data not shown)): protects DRG neurons from oxidative DNA damage
- neurotoxicity induced by systemic administration of cisplatin (DRG; tumor-bearing mice): attenuated neurotoxicity
- Ref-1/APE1 endonuclease activity (Ref-1/APE1 [2]): concentration-dependent increase in Ref-1/APE1 endonuclease activity
- Ref-1/APE1 endonuclease activity (Ref-1/APE1 [3]): not observed in tumor cells
- IC50 (NFκB): 45 µM
- effect on LPS induction of pH2A.X ([4]; E3330 20 μM pretreatment, LPS 3 μg/ml 24 hours, SCsiRNA- and APE1siRNA-treated cultures): prevented the induction of pH2A.X
- effect on MCP-1 induction of pH2A.X ([4]; E3330, SCsiRNA or APE1siRNA cultures, MCP-1 0.3 μg/ml 24 hours): prevented the induction of pH2A.X by MCP-1
